Key:
[1] = (§1) The drug is tested on Z-009 corresponding to pig gut metagenome with ENA study accession number: PRJEB37062 and ENA sample accession number: ERS12561809 for biotransformation under anaerobic condition. The drug concentrations were measured over 9 timepoints collected between 0 and 24 hours of incubation by liquid-chromatography-coupled mass spectrometry (LC–MS); details: 2 µM
[2] = as §1, with “Z-008” for “Z-009”, “to” for “to pig gut”, “ERS12561808” for “ERS12561809”; details: 2 µM
[3] = as §1, with “Z-006” for “Z-009”, “mouse” for “pig”, “ERS12561806” for “ERS12561809”; details: 2 µM
[4] = as §1, with “Z-005” for “Z-009”, “to” for “to pig gut”, “ERS12561805” for “ERS12561809”; details: 2 µM
[5] = as §1, with “Z-002” for “Z-009”, “rabbit” for “pig”, “ERS12561802” for “ERS12561809”; details: 2 µM
[6] = as §1, with “WLS-370” for “Z-009”, “human” for “pig”, “ERS12561793” for “ERS12561809”; details: 2 µM
[7] = as §1, with “WLS-090” for “Z-009”, “human” for “pig”, “ERS12561753” for “ERS12561809”; details: 2 µM
[8] = as §1, with “WLS-073” for “Z-009”, “human” for “pig”, “ERS12561749” for “ERS12561809”; details: 2 µM
[9] = as §1, with “WLS-052” for “Z-009”, “human” for “pig”, “ERS12561747” for “ERS12561809”; details: 2 µM
[10] = as §1, with “WLS-039” for “Z-009”, “human” for “pig”, “ERS12561746” for “ERS12561809”; details: 2 µM
[11] = as §1, with “WLS-027” for “Z-009”, “human” for “pig”, “ERS12561744” for “ERS12561809”; details: 2 µM
[12] = as §1, with “WLS-007” for “Z-009”, “human” for “pig”, “ERS12561742” for “ERS12561809”; details: 2 µM
[13] = human gut metagenome, 24 h, 2 µM
[14] = human gut metagenome, 24 h, 2 µM; remark: listed apart in the source
[15] = human gut metagenome, 24 h, 2 µM; remark: listed apart in the source
[16] = human gut metagenome, 24 h, 2 µM; remark: listed apart in the source
[17] = human gut metagenome, 24 h, 2 µM; remark: listed apart in the source
[18] = human gut metagenome, 24 h, 2 µM; remark: listed apart in the source
[19] = human gut metagenome, 24 h, 2 µM; remark: listed apart in the source
[20] = human gut metagenome, 24 h, 2 µM; remark: listed apart in the source
Further: call rule not given here.

| Bacterial Biotransformation [1] | Bacterial Biotransformation [2] | Bacterial Biotransformation [3] | Bacterial Biotransformation [4] | Bacterial Biotransformation [5] | Bacterial Biotransformation [6] | Bacterial Biotransformation [7] | Bacterial Biotransformation [8] | Bacterial Biotransformation [9] | Bacterial Biotransformation [10] | Bacterial Biotransformation [11] | Bacterial Biotransformation [12] | Bacterial Biotransformation [13] | Bacterial Biotransformation [14] | Bacterial Biotransformation [15] | Bacterial Biotransformation [16] | Bacterial Biotransformation [17] | Bacterial Biotransformation [18] | Bacterial Biotransformation [19] | Bacterial Biotransformation [20] | Structure (SMILES) |
| --- | --- | --- | --- | --- | --- | --- | --- | --- | --- | --- | --- | --- | --- | --- | --- | --- | --- | --- | --- | --- |
| Compound metabolized | Compound NOT metabolized | Compound NOT metabolized | Compound NOT metabolized | Compound metabolized | Compound metabolized | Compound metabolized | Compound metabolized | Compound metabolized | Compound NOT metabolized | Compound metabolized | Compound metabolized | Compound metabolized | Compound metabolized | Compound metabolized | Compound metabolized | Compound metabolized | Compound metabolized | Compound metabolized | Compound NOT metabolized | CC(C)[C@H]1CC[C@H](C(=O)N[C@H](Cc2ccccc2)C(=O)O)CC1 [NATEGLINIDE] |
| Compound metabolized | Compound NOT metabolized | Compound NOT metabolized | Compound NOT metabolized | Compound metabolized | Compound NOT metabolized | Compound NOT metabolized | Compound NOT metabolized | Compound NOT metabolized | Compound metabolized | Compound NOT metabolized | Compound metabolized | Compound NOT metabolized | Compound NOT metabolized | Compound NOT metabolized | Compound NOT metabolized | Compound NOT metabolized | Compound NOT metabolized | Compound NOT metabolized | Compound NOT metabolized | Cc1ccccc1C(OCCN(C)C)c1ccccc1.O=C(O)CC(O)(CC(=O)O)C(=O)O (stereo not given) [ORPHENADRINE CITRATE] |
| Compound metabolized | Compound NOT metabolized | Compound NOT metabolized | Compound metabolized | Compound metabolized | Compound metabolized | Compound metabolized | Compound NOT metabolized | Compound NOT metabolized | Compound NOT metabolized | Compound metabolized | Compound metabolized | Compound metabolized | Compound metabolized | Compound metabolized | Compound metabolized | Compound metabolized | Compound metabolized | Compound metabolized | Compound metabolized | CC(C)(C)N.CCC[C@H](N[C@@H](C)C(=O)N1[C@H](C(=O)O)C[C@@H]2CCCC[C@@H]21)C(=O)OCC [PERINDOPRIL ERBUMINE] |
| Compound NOT metabolized | Compound NOT metabolized | Compound NOT metabolized | Compound NOT metabolized | Compound NOT metabolized | Compound NOT metabolized | Compound metabolized | Compound NOT metabolized | Compound NOT metabolized | Compound NOT metabolized | Compound NOT metabolized | Compound NOT metabolized | Compound NOT metabolized | Compound NOT metabolized | Compound metabolized | Compound NOT metabolized | Compound metabolized | Compound NOT metabolized | Compound metabolized | Compound NOT metabolized | C=C[C@H]1CN2CC[C@H]1C[C@H]2[C@H](O)c1ccnc2ccc(OC)cc12.C=C[C@H]1CN2CC[C@H]1C[C@H]2[C@H](O)c1ccnc2ccc(OC)cc12.O.O.O=S(=O)(O)O [QUININE SULFATE] |
| Compound NOT metabolized | Compound NOT metabolized | Compound NOT metabolized | Compound NOT metabolized | Compound metabolized | Compound metabolized | Compound NOT metabolized | Compound NOT metabolized | Compound NOT metabolized | Compound NOT metabolized | Compound NOT metabolized | Compound NOT metabolized | Compound metabolized | Compound metabolized | Compound NOT metabolized | Compound NOT metabolized | Compound NOT metabolized | Compound NOT metabolized | Compound NOT metabolized | Compound NOT metabolized | O=C(NC(Cc1cc(=O)[nH]c2ccccc12)C(=O)O)c1ccc(Cl)cc1 (stereo not given) [REBAMIPIDE] |

| Structure (SMILES) | Bacterial Biotransformation [1] | Bacterial Biotransformation [2] | Bacterial Biotransformation [3] | Bacterial Biotransformation [4] | Bacterial Biotransformation [5] | Bacterial Biotransformation [6] | Bacterial Biotransformation [7] | Bacterial Biotransformation [8] | Bacterial Biotransformation [9] | Bacterial Biotransformation [10] | Bacterial Biotransformation [11] | Bacterial Biotransformation [12] | Bacterial Biotransformation [13] | Bacterial Biotransformation [14] | Bacterial Biotransformation [15] | Bacterial Biotransformation [16] | Bacterial Biotransformation [17] | Bacterial Biotransformation [18] | Bacterial Biotransformation [19] | Bacterial Biotransformation [20] |
| --- | --- | --- | --- | --- | --- | --- | --- | --- | --- | --- | --- | --- | --- | --- | --- | --- | --- | --- | --- | --- |
| CN(C)C(=O)Oc1cccc([N+](C)(C)C)c1.[Br-] [NEOSTIGMINE BROMIDE] | Compound NOT metabolized | Compound NOT metabolized | Compound NOT metabolized | Compound NOT metabolized | Compound metabolized | Compound NOT metabolized | Compound NOT metabolized | Compound NOT metabolized | Compound NOT metabolized | Compound NOT metabolized | Compound NOT metabolized | Compound NOT metabolized | Compound NOT metabolized | Compound NOT metabolized | Compound NOT metabolized | Compound NOT metabolized | Compound NOT metabolized | Compound NOT metabolized | Compound NOT metabolized | Compound NOT metabolized |
| CC(=O)CCCCn1c(=O)c2c(ncn2C)n(C)c1=O [PENTOXIFYLLINE] | Compound NOT metabolized | Compound NOT metabolized | Compound NOT metabolized | Compound NOT metabolized | Compound NOT metabolized | Compound NOT metabolized | Compound metabolized | Compound NOT metabolized | Compound NOT metabolized | Compound NOT metabolized | Compound NOT metabolized | Compound NOT metabolized | Compound NOT metabolized | Compound NOT metabolized | Compound NOT metabolized | Compound NOT metabolized | Compound metabolized | Compound NOT metabolized | Compound NOT metabolized | Compound NOT metabolized |
| CCCN1C[C@H](CSC)C[C@@H]2c3cccc4[nH]cc(c34)C[C@H]21.CS(=O)(=O)O [PERGOLIDE MESYLATE] | Compound NOT metabolized | Compound NOT metabolized | Compound NOT metabolized | Compound NOT metabolized | Compound NOT metabolized | Compound metabolized | Compound NOT metabolized | Compound NOT metabolized | Compound NOT metabolized | Compound NOT metabolized | Compound NOT metabolized | Compound NOT metabolized | Compound NOT metabolized | Compound NOT metabolized | Compound NOT metabolized | Compound NOT metabolized | Compound NOT metabolized | Compound NOT metabolized | Compound NOT metabolized | Compound NOT metabolized |

Source: ChEMBL document CHEMBL5724914, “Linking interpersonal differences in gut microbiota composition and drug biotransformation activity” (2024)
